From article PMC9182086, “Identification of New Non-BBB Permeable Tryptophan Hydroxylase Inhibitors for Treating Obesity and Fatty Liver Disease” (Molecules, 2022)

Key:
[1] = target: T1, CYP1A2 (Homo sapiens, UniProt P05177); assay: CYP inhibition assay (P450-Glo) CYP1A2; format: in vitro ADME; settings: P450-Glo CYP1A2 Screening System (CYP enzyme), read-out: CYP inhibition 1A2
T1 construct: purchased Promega Corp. V9770
T1 sequence (P05177 1-516): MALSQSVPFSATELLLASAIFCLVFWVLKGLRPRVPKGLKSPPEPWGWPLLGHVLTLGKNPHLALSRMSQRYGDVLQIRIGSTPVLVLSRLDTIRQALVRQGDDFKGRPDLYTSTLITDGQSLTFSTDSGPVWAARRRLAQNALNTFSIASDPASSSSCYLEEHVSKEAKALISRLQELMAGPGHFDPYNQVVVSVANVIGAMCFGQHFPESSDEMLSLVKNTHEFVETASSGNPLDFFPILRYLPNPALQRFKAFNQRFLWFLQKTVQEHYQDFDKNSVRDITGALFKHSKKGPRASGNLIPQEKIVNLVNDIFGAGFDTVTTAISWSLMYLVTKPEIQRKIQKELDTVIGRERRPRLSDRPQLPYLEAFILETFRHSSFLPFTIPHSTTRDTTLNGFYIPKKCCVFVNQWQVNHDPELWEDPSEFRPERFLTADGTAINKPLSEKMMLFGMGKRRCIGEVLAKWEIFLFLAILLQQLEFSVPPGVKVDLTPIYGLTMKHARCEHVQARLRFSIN
Description: (§1) Five major screening systems: P450-Glo CYP1A2 Screening System (Catalog# V9770), P450-Glo CYP2C9 Screening System (Catalog# V9790), P450-Glo CYP2C19 (Catalog# V9880), P450-Glo CYP 2D6 (Catalog# V9890), and P450-Glo CYP3A4 (Catalog# V9920) were attained from Promega Corp. (Madison, WI). α-naphthoflavone, sulfaphenazole, amitriptyline, quinidine, and ketoconazole were identified as positive control inhibitors for CYP1A2, CYP2C9, CYP2C19, CYP2D6, and CYP3A4, respectively. The CYP enzyme and substrate were combined in a potassium phosphate (KPO4) buffer and the reaction is initiated by adding an NADPH regenerating system. The volume of the mixture (12.5 μL in a 96-well plate) was combined with an equal volume of test compound solution and positive control inhibitor (12.5 μL added to make the volume 25 μL). The reaction of the NADPH regeneration system was initiated by adding a 2× concentration of NADPH solution. Then an equal volume of luciferin detection reagent was added. The plates were incubated at room temperature for 20 min and the luminescence signal was measured by a microplate reader device.

[2] = Blood brain barrier PK: plasma and brain levels after iv dosing; format: in vivo, male SD rats; settings: male rats, 5 mg/kg iv; for BBB penetration: brain level: BQL = below the quantification limit
Procedure: The biodistribution study in plasma and brain tissue was performed using eight-week-old male SD rats (Orient Bio Inc., Seongnam, Korea). Dosing vehicles were composed of DMSO, PEG400, and deionized water (5:40:55, v/v/v). 18i compound was administrated at a dose of 5 mg/kg via intravenous (I.V.). […] Brain tissues were rinsed with saline and four volumes of acetronitrile containing disopyramide were added as an internal standard for LC-MS/MS analysis. The brain samples were homogenized using a sonicator (IKA Labortechnik T10 basic ULTRA-TURRAX, Staufen, Germany) for 10 s on the ice. The plasma samples were added to nine volumes of acetonitrile and vortexed for 5 min. The samples were centrifuged (15,000 RPM, 4 °C, 10 min). The supernatant was collected and analyzed by an LC-MS/MS system.
The LC-MS/MS analysis was performed on an Agilent 1200 series (Agilent Technologies, Santa Clara, CA, USA) with an API 4000 linear ion trap triple quadruple mass spectrometer (AB Sciex, CA, USA). The chromatographic separation of the drug was carried out using a kinetex column (100 × 2.1 mm, 3 μm, Phenomenex, CA USA) with a SecurityGuard C18 guard column (4 mm × 2.0 mm i.d., Phenomenex). The flow rate was 300 µL/min with a mobile phase consisting of 0.1% formic acid in water (eluent A) and 0.1% formic acid in acetonitrile (eluent B) by linear gradient condition as follows: starting with 0 to 0.3 min, B: 5%; 0.3 to 2.5 min, B: 5 → 95%; 2.5 to 2.9 min, B: 95%; 2.9 to 3.0 min, B: 95 → 5%, and then re-equilibrated to initial conditions until 3 min. The total run time was 6 min and the injection volume of 5 μL.

[3] = Liver microsomal stability (human); format: in vitro ADME; settings: after 30 min incubation, 1 µM
Procedure: (§2) For the liver microsomal activity, test compounds were incubated with rat and mouse’s liver microsomes, respectively, at a final concentration of 1 µM, in the presence of an NADPH regeneration system in 0.1 M potassium phosphate buffer (pH 7.4) for […] at 37 °C in shaking incubator. The microsomal reaction was terminated by adding four volumes of ice-cold acetonitrile and then centrifuged at 4000 rpm for 20 min. The supernatant was collected and analyzed by a LC-MS/MS system. The percentage of the parent compound remaining was calculated by comparing peak areas.

[4] = Liver microsomal stability (rat); format: in vitro ADME
Procedure: as §2

[5] = target: T2, CYP2D6 (Homo sapiens, UniProt P10635); assay: CYP inhibition assay (P450-Glo) CYP2D6; format: in vitro ADME; settings: P450-Glo CYP2D6 Screening System (CYP enzyme), read-out: CYP inhibition 2D6
T2 construct: purchased Promega Corp. V9890
T2 sequence (P10635 whole entry): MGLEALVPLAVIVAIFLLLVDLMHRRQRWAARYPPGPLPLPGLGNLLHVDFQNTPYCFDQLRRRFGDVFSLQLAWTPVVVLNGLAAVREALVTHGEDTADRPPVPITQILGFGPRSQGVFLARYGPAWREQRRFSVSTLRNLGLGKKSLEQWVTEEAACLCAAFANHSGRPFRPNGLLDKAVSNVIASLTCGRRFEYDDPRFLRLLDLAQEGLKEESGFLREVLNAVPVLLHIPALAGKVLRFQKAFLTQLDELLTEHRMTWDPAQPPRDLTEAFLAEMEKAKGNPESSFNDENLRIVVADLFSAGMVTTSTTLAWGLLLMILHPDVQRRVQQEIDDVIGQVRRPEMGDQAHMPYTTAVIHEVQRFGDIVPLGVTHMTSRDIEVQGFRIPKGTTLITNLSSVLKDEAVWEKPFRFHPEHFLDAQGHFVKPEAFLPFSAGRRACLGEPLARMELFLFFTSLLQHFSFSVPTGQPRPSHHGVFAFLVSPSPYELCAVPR
Description: as §1

[6] = target: T3, CYP2C19 (Homo sapiens, UniProt P33261); assay: CYP inhibition assay (P450-Glo) CYP2C19; format: in vitro ADME; settings: P450-Glo CYP2C19 Screening System (CYP enzyme), read-out: CYP inhibition 2C19
T3 construct: purchased Promega Corp. V9880
T3 sequence (P33261 whole entry): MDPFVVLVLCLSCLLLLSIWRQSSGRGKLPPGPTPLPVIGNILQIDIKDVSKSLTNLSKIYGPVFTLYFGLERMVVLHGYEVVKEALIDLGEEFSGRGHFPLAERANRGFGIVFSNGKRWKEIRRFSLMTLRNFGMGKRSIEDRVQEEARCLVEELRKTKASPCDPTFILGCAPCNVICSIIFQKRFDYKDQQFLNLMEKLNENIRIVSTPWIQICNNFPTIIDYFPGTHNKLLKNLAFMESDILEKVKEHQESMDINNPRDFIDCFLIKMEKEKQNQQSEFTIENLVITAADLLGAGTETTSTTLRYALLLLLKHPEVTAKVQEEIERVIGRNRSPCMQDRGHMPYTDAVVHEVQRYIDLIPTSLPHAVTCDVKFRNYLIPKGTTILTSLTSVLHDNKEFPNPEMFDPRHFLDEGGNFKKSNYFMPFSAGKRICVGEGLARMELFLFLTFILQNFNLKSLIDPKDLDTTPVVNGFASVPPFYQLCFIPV
Description: as §1

[7] = target: T4, hERG channel protein (Homo sapiens, UniProt Q12809); assay: hERG inhibition (Predictor hERG FP binding kit); settings: at 10 uM
T4 construct: purchased Thermo Fisher Scientific, Inc
T4 sequence (Q12809 whole entry): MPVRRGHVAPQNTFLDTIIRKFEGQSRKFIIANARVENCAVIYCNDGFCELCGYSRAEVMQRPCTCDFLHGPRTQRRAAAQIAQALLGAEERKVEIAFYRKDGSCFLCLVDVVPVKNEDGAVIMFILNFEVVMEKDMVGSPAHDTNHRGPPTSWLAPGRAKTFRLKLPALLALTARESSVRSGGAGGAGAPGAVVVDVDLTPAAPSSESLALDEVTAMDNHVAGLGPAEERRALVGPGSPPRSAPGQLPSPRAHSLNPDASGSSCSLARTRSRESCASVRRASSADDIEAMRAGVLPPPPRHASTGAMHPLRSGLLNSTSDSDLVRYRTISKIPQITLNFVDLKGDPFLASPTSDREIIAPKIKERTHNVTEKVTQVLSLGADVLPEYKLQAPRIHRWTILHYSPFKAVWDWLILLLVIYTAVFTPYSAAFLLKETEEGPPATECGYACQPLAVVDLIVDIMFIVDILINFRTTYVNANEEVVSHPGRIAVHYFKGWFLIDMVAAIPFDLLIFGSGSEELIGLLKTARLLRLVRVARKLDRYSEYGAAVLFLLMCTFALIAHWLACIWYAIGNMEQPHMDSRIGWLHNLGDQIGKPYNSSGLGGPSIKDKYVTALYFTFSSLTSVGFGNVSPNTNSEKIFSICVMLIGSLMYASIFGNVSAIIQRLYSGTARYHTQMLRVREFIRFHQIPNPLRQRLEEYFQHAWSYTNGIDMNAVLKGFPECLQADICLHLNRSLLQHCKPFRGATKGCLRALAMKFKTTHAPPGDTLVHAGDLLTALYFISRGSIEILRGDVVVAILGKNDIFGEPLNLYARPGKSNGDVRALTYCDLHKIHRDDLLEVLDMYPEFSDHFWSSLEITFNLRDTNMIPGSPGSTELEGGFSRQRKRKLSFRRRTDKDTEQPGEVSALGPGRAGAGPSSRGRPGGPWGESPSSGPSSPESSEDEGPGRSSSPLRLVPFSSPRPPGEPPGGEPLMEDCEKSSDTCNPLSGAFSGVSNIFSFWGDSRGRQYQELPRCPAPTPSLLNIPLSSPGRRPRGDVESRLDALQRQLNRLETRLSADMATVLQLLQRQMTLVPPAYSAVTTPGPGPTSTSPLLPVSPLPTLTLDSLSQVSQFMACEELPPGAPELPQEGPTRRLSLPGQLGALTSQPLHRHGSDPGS
Procedure: The inhibition of binding affinity by small molecules was measured using the PredictorTM hERG FP kit (Thermo Fisher Scientific, Inc., Rockford, IL, USA). The procedure was carried out in accordance with the manufacturer's instructions. Briefly, tracer (PredictorTM hERG tracer red) was prepared with dilution in the binding buffer. The binding assay was conducted in 384 well black flat-bottom microplates (Corning Life Sciences, Lowell, MA, USA) after the serial addition of 5 μL of a 4 nM tracer, 5 μL of test compounds, and a 10 μL membrane fraction containing hERG channel protein. The mixtures were incubated at room temperature for 2 h. The fluorescence polarization (FP) was measured with an excitation filter of 530 nm and an emission filter of 585 nm using a microplate reader (Infinite […]; Tecan, Mannedorf, Switzerland).

Cc1ccn(-c2cc(Cl)ccc2[C@@H](Oc2ncnc3c(-c4ccc(C[C@H](N)C(=O)O)cc4)csc23)C(F)(F)F)n1.Cl [Compound 18i, (S)-2-amino-3-(4-(4-((R)-1-(4-chloro-2-(3-methyl-1H-pyrazol-1-yl)phenyl)-2,2,2-trifluoroethoxy)thieno[3,2-d]pyrimidin-7-yl)phenyl)propanoic acid hydrochloride]
inhibition at 10 µM [1]: 0.1% | concentration at 0.5 h ([2]; SD, rat, plasma, 0.5 h, read-out: BBB penetration: plasma level): 2270 ng/mL | concentration at 3 h ([2]; SD, rat, plasma, 3 h, read-out: BBB penetration: plasma level): 1440 ng/mL | BBB penetration: plasma level ([2]; 0.5 h): Plasma: 0.5 h: 2266 ng/mL | BBB penetration: brain level ([2]; 0.5 h): Brain: 0.5 h: BQL ^a | BBB penetration: plasma level ([2]; 3 h): 3 h: 1439 ng/mL | BBB penetration: brain level ([2]; 3 h): 3 h: BQL | level below the quantification limit (text says plasma) ([2]; time not stated): < 7 ng/mL | Liver microsomal stability (human), parent remained [3]: 99% parent remained after 30 min incubation | Liver microsomal stability (rat), parent remained ([4]; after 30 min incubation, 1 µM): 99% parent remained after 30 min incubation | Liver microsomal stability, remained ([4]; after incubation for 30 min, species not given): 99% | inhibition at 10 µM [5]: 24.6% | inhibition at 10 µM [6]: 46.5% | Herg inhibition [7]: <1% inhibition at 10 uM
